Test results: patent publication US8440652B2, “MST1 kinase inhibitors and methods of their use” (Lexicon Pharmaceuticals, Inc., priority 2011, dated 2013)
Like-named read-outs stand apart in the source and are kept apart here.

Molecular target: T1, MST1 (Homo sapiens, UniProt Q13043)
T1 sequence (Q13043 1-487): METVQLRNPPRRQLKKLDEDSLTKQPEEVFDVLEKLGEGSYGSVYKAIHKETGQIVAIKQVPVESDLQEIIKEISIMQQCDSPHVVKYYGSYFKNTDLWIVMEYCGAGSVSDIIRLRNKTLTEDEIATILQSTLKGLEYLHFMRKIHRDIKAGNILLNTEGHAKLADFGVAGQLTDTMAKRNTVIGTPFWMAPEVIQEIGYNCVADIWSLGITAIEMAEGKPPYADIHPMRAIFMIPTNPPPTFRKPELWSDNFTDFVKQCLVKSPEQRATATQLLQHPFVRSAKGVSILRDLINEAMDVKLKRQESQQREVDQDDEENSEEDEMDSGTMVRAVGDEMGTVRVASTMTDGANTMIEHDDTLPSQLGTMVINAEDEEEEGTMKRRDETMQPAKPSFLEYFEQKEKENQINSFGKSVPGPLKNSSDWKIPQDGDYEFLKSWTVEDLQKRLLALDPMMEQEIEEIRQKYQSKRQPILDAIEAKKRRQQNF
Test: In vitro measurement of MST1 inhibition (Z′-Lyte kinase assay)
Type: biochemical

[1] = 1 μM ATP, read-out: IC50 (μM) 1 μM ATP
[2] = 50 μM ATP, read-out: IC50 (μM) 50 μM ATP

| IC50 [1] [µM] | IC50 [2] [µM] | Compound |
| --- | --- | --- |
| < 0.01 | < 0.01 | C=CCN(C)S(=O)(=O)c1ccc(-c2cnc(N)c(-c3ccc4c(c3)CCNC4=O)c2)cc1 [N-allyl-4-(6-amino-5-(1-oxo-1,2,3,4-tetrahydroisoquinolin-6-yl)pyridin-3-yl)-N-methylbenzenesulfonamide] |
| < 0.05 | < 0.01 | CC(C)(Oc1ccc(-c2cnc(N)c(-c3ccc4c(c3)CCNC4=O)n2)cc1)C(N)=O [2-(4-(5-amino-6-(1-oxo-1,2,3,4-tetrahydroisoquinolin-6-yl)pyrazin-2-yl)phenoxy)-2-methylpropanamide] |
| – | < 0.15 | NC(=O)c1ccc(-c2cc(-c3ccc(-n4ccnc4)cc3)cnc2N)cc1 [4-(5-(4-(1H-imidazol-1-yl)phenyl)-2-aminopyridin-3-yl)benzamide] |
| < 0.05 | < 0.01 | Cc1ccc(-c2cnc(N)c(-c3ccc4c(c3)CCNC4=O)c2)s1 [6-(2-amino-5-(5-methylthiophen-2-yl)pyridin-3-yl)-3,4-dihydroisoquinolin-1(2H)-one] |
| < 0.05 | < 0.01 | CC1(C#N)CCc2cc(-c3cnc(N)c(-c4ccc5c(c4)CCNC5=O)n3)ccc21 (centres unmarked) [5-(5-amino-6-(1-oxo-1,2,3,4-tetrahydroisoquinolin-6-yl)pyrazin-2-yl)-1-methyl-2,3-dihydro-1H-indene-1-carbonitrile] |
| < 0.15 | < 0.05 | Nc1ncc(-c2ccc(C(=O)NCC(F)(F)F)s2)cc1-c1ccc2c(c1)CCNC2=O [5-(6-amino-5-(1-oxo-1,2,3,4-tetrahydroisoquinolin-6-yl)pyridin-3-yl)-N-(2,2,2-trifluoroethyl)thiophene-2-carboxamide] |
| < 0.01 | < 0.01 | Nc1ncc(-c2ccc(S(=O)(=O)N3CCCCC3)cc2)nc1-c1ccc2c(=O)[nH]ccc2c1 [6-(3-amino-6-(4-(piperidin-1-ylsulfonyl)phenyl)pyrazin-2-yl)isoquinolin-1(2H)-one] |
| < 0.05 | < 0.01 | CCN(C)S(=O)(=O)c1ccc(-c2cnc(N)c(-c3cc4c(s3)C(=O)NCC4)c2)cc1 [4-(6-amino-5-(7-oxo-4,5,6,7-tetrahydrothieno[2,3-c]pyridin-2-yl)pyridin-3-yl)-N-ethyl-N-methylbenzenesulfonamide] |
| < 0.01 | < 0.01 | [2H]C([2H])([2H])N(C1CC1)S(=O)(=O)c1ccc(-c2cnc(N)c(-c3ccc4c(c3)CCNC4=O)n2)nc1 [6-(5-amino-6-(1-oxo-1,2,3,4-tetrahydroisoquinolin-6-yl)pyrazin-2-yl)-N-cyclopropyl-N-trideuteromethylpyridine-3-sulfonamide] |
| < 0.01 | < 0.01 | CN(C1CC1)S(=O)(=O)c1ccc(-c2cnc(N)c(-c3ccc4c(=O)[nH]ccc4c3)c2)cc1 [4-(6-amino-5-(1-oxo-1,2-dihydroisoquinolin-6-yl)pyridin-3-yl)-N-cyclopropyl-N-methylbenzenesulfonamide] |
| < 0.05 | < 0.01 | CCNS(=O)(=O)c1ccc(-c2cnc(N)c(-c3ccc(C(N)=O)cn3)c2)cc1 [2′-amino-5′-(4-(N-ethylsulfamoyl)phenyl)-[2,3′-bipyridine]-5-carboxamide] |
| < 0.01 | < 0.01 | N#Cc1ccc(-c2cnc(N)c(-c3cc4c(cn3)C(=O)NCC4)n2)cc1 [4-(5-amino-6-(8-oxo-5,6,7,8-tetrahydro-2,7-naphthyridin-3-yl)pyrazin-2-yl)benzonitrile] |
| < 0.15 | < 0.05 | CC(C)(C)OC(=O)N1CC=C(c2cnc(N)c(-c3ccc4c(c3)CCNC4=O)c2)CC1 [tert-butyl 6-amino-5-(1-oxo-1,2,3,4-tetrahydroisoquinolin-6-yl)-5′,6′-dihydro-[3,4′-bipyridine]-1′(2′H)-carboxylate] |
| < 0.01 | < 0.01 | CN(C1CC1)S(=O)(=O)c1ccc(-c2cnc(N)c(-c3ccc4c(c3)C3(CC3)CNC4=O)n2)cc1 [4-(5-amino-6-(1′-oxo-2′,3′-dihydro-1′H-spiro[cyclopropane-1,4′-isoquinolin]-6′-yl)pyrazin-2-yl)-N-cyclopropyl-N-methylbenzenesulfonamide] |
| < 0.05 | < 0.01 | N#CC1CC1c1ccc(-c2cnc(N)c(-c3ccc4c(c3)CCNC4=O)n2)cc1 (centres unmarked) [2-(4-(5-amino-6-(1-oxo-1,2,3,4-tetrahydroisoquinolin-6-yl)pyrazin-2-yl)phenyl)cyclopropanecarbonitrile] |
| < 0.01 | < 0.01 | CN(C1CC1)S(=O)(=O)c1ccc(-c2cnc(N)c(-c3ccc4c(c3)C3(CC3)CNC4=O)c2)cc1 [4-(6-amino-5-(1′-oxo-2′,3′-dihydro-1′H-spiro[cyclopropane-1,4′-isoquinolin]-6′-yl)pyridin-3-yl)-N-cyclopropyl-N-methylbenzenesulfonamide] |

| IC50 [1] [µM] | IC50 [2] [µM] | Compound |
| --- | --- | --- |
| < 0.01 | < 0.01 | Nc1ncc(-c2ccc(S(=O)(=O)NC3CC3)cc2)nc1-c1ccc2c(c1)C1(CC1)CNC2=O [4-(5-amino-6-(1′-oxo-2′,3′-dihydro-1′H-spiro[cyclopropane-1,4′-isoquinolin]-6′-yl)pyrazin-2-yl)-N-cyclopropylbenzenesulfonamide] |
| < 0.01 | < 0.01 | CC1(C)CNC(=O)c2ccc(-c3cc(-c4ccc(C5(C#N)CCOCC5)cc4)cnc3N)cc21 [4-(4-(6-amino-5-(4,4-dimethyl-1-oxo-1,2,3,4-tetrahydroisoquinolin-6-yl)pyridin-3-yl)phenyl)tetrahydro-2H-pyran-4-carbonitrile] |
| < 0.05 | < 0.01 | CN(C1CC1)S(=O)(=O)c1ccc(-c2cc(-c3ccc4c(c3)CCNC4=O)c(N)nn2)cc1 [4-(6-amino-5-(1-oxo-1,2,3,4-tetrahydroisoquinolin-6-yl)pyridazin-3-yl)-N-cyclopropyl-N-methylbenzenesulfonamide] |
| < 0.01 | < 0.01 | CCN(C)S(=O)(=O)c1ccc(-c2cnc(N)c(-c3ccc4c(c3)CCNC4=O)n2)cc1Cl [4-(5-amino-6-(1-oxo-1,2,3,4-tetrahydroisoquinolin-6-yl)pyrazin-2-yl)-2-chloro-N-ethyl-N-methylbenzenesulfonamide] |
| < 0.05 | < 0.01 | N#CC1(c2ccc(-c3cnc(N)c(-c4ccc5c(c4)C4(CC4)NC5=O)c3)cc2)CCOCC1 [4-(4-(6-amino-5-(3′-oxospiro[cyclopropane-1,1′-isoindolin]-6′-yl)pyridin-3-yl)phenyl)tetrahydro-2H-pyran-4-carbonitrile] |
| < 0.01 | < 0.01 | CCN(C)S(=O)(=O)c1ccc(-c2cnc(N)c(-c3ccc4c(c3)CCNC4=O)n2)cc1 [4-(5-amino-6-(1-oxo-1,2,3,4-tetrahydroisoquinolin-6-yl)pyrazin-2-yl)-N-ethyl-N-methylbenzenesulfonamide] |
| < 0.15 | < 0.05 | Nc1ncc(-c2ccc(F)cc2)cc1-c1ccc2c(c1)CCNC2=O [6-(2-amino-5-(4-fluorophenyl)pyridin-3-yl)-3,4-dihydroisoquinolin-1(2H)-one] |
| < 0.01 | < 0.01 | CN(C1CC1)S(=O)(=O)c1ccc(-c2cnc(N)c(-c3ccc4c(c3)CCNC4=O)c2)cn1 [6′-amino-N-cyclopropyl-N-methyl-5′-(1-oxo-1,2,3,4-tetrahydroisoquinolin-6-yl)-[3,3′-bipyridine]-6-sulfonamide] |
| < 0.01 | < 0.01 | CCN(CC1CC1)S(=O)(=O)c1ccc(-c2cnc(N)c(-c3ccc4c(c3)CCNC4=O)n2)cc1 [4-(5-amino-6-(1-oxo-1,2,3,4-tetrahydroisoquinolin-6-yl)pyrazin-2-yl)-N-(cyclopropylmethyl)-N-ethylbenzenesulfonamide] |
| < 0.15 | < 0.05 | Nc1ncc(-c2ccc(C(=O)C(F)(F)F)cc2)nc1-c1ccc2c(c1)CCNC2=O [6-(3-amino-6-(4-(2,2,2-trifluoroacetyl)phenyl)pyrazin-2-yl)-3,4-dihydroisoquinolin-1(2H)-one] |
| < 0.15 | < 0.05 | Cn1cc(-c2cnc(N)c(-c3ccc4c(c3)CCNC4=O)n2)cn1 [6-(3-amino-6-(1-methyl-1H-pyrazol-4-yl)pyrazin-2-yl)-3,4-dihydroisoquinolin-1(2H)-one] |
| < 0.05 | < 0.01 | N#CC1(c2ccc(-c3cnc(N)c(-c4ccc5c(c4)CCNC5=O)n3)cc2)CCOCC1 [4-(4-(5-amino-6-(1-oxo-1,2,3,4-tetrahydroisoquinolin-6-yl)pyrazin-2-yl)phenyl)tetrahydro-2H-pyran-4-carbonitrile] |
| – | < 0.15 | NC(=O)c1ccc(-c2cc(-c3ccc(CC(=O)N4CCCC4)cc3)cnc2N)cc1 [4-(2-amino-5-(4-(2-oxo-2-(pyrrolidin-1-yl)ethyl)phenyl)pyridin-3-yl)benzamide] |
| < 0.05 | < 0.01 | CCC(=O)c1ccc(-c2cnc(N)c(-c3ccc4c(c3)CCNC4=O)n2)cc1 [6-(3-amino-6-(4-propionylphenyl)pyrazin-2-yl)-3,4-dihydroisoquinolin-1(2H)-one] |
| < 0.01 | < 0.01 | C[C@H]1CNc2cc(-c3cc(-c4ccc(S(=O)(=O)N(C)C5CC5)cc4)cnc3N)ccc2C(=O)N1 [(S)-4-(6-amino-5-(3-methyl-5-oxo-2,3,4,5-tetrahydro-1H-benzo[e][1,4]diazepin-8-yl)pyridin-3-yl)-N-cyclopropyl-N-methylbenzenesulfonamide] |
| < 0.05 | < 0.01 | CCNS(=O)(=O)c1ccc(-c2cnc(N)c(-c3ccc4c(c3)CCC/C4=N\O)c2)cc1 [(E)-4-(6-amino-5-(5-(hydroxyimino)-5,6,7,8-tetrahydronaphthalen-2-yl)pyridin-3-yl)-N-ethylbenzenesulfonamide] |
